Measurements published in publication PMC10530652 (BME Frontiers, 2021).

Tests used:
MMP-2 = target: T1, MMP-2 (Homo sapiens, UniProt P08253); test: In vitro enzymatic validation of FIB One with recombinant MMP-2 (plate reader); assay type: biochemical; details: marimastat 20 μM, enzyme pre-incubated 30 min at 37°C, FIB One 1 μM, MMP 30 nM
T1 construct: recombinant MMPs (Enzo Life Sciences) (active domains of MMP-1, MMP-2, MMP-3, MMP-7, MMP-8, MMP-9, MMP-10, MMP-11, MMP-12, and MMP-13); purchased Enzo Life Sciences
T1 sequence (P08253 110-446 limits assumed): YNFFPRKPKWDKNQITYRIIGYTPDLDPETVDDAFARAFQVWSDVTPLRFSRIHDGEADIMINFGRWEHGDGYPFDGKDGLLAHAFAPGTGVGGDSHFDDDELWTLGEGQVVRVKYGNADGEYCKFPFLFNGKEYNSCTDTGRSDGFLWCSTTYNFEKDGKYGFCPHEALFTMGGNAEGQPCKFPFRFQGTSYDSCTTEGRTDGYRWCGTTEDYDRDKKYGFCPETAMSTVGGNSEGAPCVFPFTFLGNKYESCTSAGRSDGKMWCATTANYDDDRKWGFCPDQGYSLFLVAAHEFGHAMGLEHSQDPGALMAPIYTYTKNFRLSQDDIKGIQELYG
Protocol: (§1) To determine the enzymatic specificity of FIB One, the probe was incubated at a concentration of 1 μM (unless otherwise stated) with the recombinant MMPs (Enzo Life Sciences) (active domains of MMP-1, MMP-2, MMP-3, MMP-7, MMP-8, MMP-9, MMP-10, MMP-11, MMP-12, and MMP-13, all at 30 nM), thrombin (Sigma Aldrich) (5 U/mL), factor Xa (Sigma Aldrich) (500 nM), plasmin (Sigma Aldrich) (30 nM), and human neutrophil elastase (30 nM). Where appropriate, enzymes were incubated with specific inhibitors for 30 min at 37°C prior to addition of FIB One. […] Enzyme free reactions served as a control. Enzymatic reactions were performed in MMP buffer (10 mM CaCl2, 6.1 g Tris-HCl, 8.6 g NaCl per litre, pH 7.5) in a final volume of 20 μL. Reactions were performed in duplicate in 384-well plates (Life Technologies) with optically clear plate seals (Thermo Scientific) and repeated thrice (independently). Fluorescence signal was measured for up to 60 min, ex/em 485/528 nm using microplate reader (BioTek Synergy H1 multimode reader). Data were normalised to buffer alone and are presented as fold-change in signal (relative fluorescent units, RFU) compared to enzyme-free controls. Data were plotted using Prism 7 (GraphPad Software Inc., La Jolla, CA, USA).

[1] = system: MMP activity in ex vivo ventilated ovine lung; test: Ex vivo ovine lung model instilled with OPA supernatant, FCFM imaging; details: marimastat 100 μM with OPA supernatant, 5 μM FIB One
Protocol: Ovine pulmonary adenocarcinoma (OPA) tissue was homogenised using a drill homogeniser, followed by lysis in cell lysis buffer. The supernatant was collected following centrifugation at 12,000 rpm for 20 min. The samples were adjusted to 1 mg mL^-1 total protein (determined by a Pierce BCA Total Protein Assay Kit (Thermo Fisher Scientific)). Zymography (as described above) was performed to confirm MMP activity across multiple OPA samples. Recombinant MMP-9 (2 nM) and recombinant pro-MMP-9 (0.5 nM) were included in the assay as positive controls. […] Following >30 min, the segments were bronchoscopically identified and microdosed with 5 μM FIB One in 1 mL. FCFM imaging was undertaken pre- and postinstillation (Cellvizio®, Mauna Kea Technologies). This was performed by passing a FCFM fibre into the disparate bronchopulmonary segments (up to 5 passes per bronchopulmonary segment to capture a regional representation of fluorescence), recording images at 12 frames per second and imaging for up to 5 minutes. Videos were analysed as described above. Each experimental set was normalised to the control segment (segment with 1 mL 0.9% NaCl instilled) which represents intrinsic autofluorescence.

[2] = system: primary human lung tissue; test: Ex vivo fibre-based (FCFM) imaging of human lung tissue with FIB One; details: marimastat 100 μM, FIB One 1 μM, 10 min, n=9, P=0.0215
Protocol: Human lung tissue samples (lung tumour and noncancerous adjacent tissue) were obtained following surgical resection and stored at -80° C until use. Processing for multiwell plate reader assay or zymography analysis was conducted as follows: 1 mm×4 mm sections were homogenised in 400 μL MMP buffer in Precellys 2.8 mm ceramic bead tubes (VWR) using a Pecellys 24 homogeniser. Homogenised tissue was adjusted to 4 mg mL^-1 protein (determined by a Pierce BCA Total Protein Assay Kit (Thermo Fisher Scientific), following the manufacturer’s instructions). Multiwell plate reader assays were performed as previously described, replacing the MMP buffer and MMP enzymes for the homogenised and protein-adjusted lung tissue.
For ex vivo imaging, human lung tissue was sliced into 1 mm×4 mm sections and placed in the wells of a 96-well plate with 100 μL of MMP buffer and 30 nM MMP-13. […] The fluorescence for each sample was calculated by determining the average fluorescence per frame for each time point. […] Five independent patient specimens were collected and analysed. RFUs collected from off-target frames (showing motion artefact or absence of any fluorescence) were omitted during analysis.

MMP-9 = target: T2, MMP-9 (Homo sapiens, UniProt P14780); test: In vitro enzymatic validation of FIB One with recombinant MMP-9 (plate reader); assay type: biochemical; details: marimastat 20 μM, enzyme pre-incubated 30 min at 37°C, FIB One 1 μM, MMP 30 nM
T2 construct: recombinant MMPs (Enzo Life Sciences) (active domains of MMP-1, MMP-2, MMP-3, MMP-7, MMP-8, MMP-9, MMP-10, MMP-11, MMP-12, and MMP-13); purchased Enzo Life Sciences
T2 sequence (P14780 107-444 limits assumed): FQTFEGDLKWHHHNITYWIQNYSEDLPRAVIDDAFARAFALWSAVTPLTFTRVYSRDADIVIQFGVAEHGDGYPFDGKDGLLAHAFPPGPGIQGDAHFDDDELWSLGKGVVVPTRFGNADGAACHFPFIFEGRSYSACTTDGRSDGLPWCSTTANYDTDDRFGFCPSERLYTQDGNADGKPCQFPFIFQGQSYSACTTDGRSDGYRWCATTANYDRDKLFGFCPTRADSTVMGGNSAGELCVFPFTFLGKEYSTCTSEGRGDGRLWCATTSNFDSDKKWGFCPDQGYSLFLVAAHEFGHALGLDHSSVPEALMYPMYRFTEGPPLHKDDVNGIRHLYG
Protocol: as §1

[3] = system: stimulated human neutrophils; test: FIB One cleavage in supernatant from stimulated neutrophils; assay type: cell-based; details: coincubation with marimastat, FIB One 1 μM, 10 min
Protocol: Neutrophils were isolated from the blood of healthy human volunteers as previously described. The number of retrieved neutrophils was determined with NucleoCounter NC-1000 (Chemo Metec). Neutrophils were resuspended at a concentration of 20×10^6 mL^-1 in 0.9% NaCl with 0.9 mM CaCl2. Cells were incubated for 30 min at 37°C. Cells to be stimulated were subsequently activated with 5 μM calcium ionophore A23187 (Tocris Bioscience) for 30 min at 37°C. Neutrophils were harvested by centrifugation at 400 x g for 5 min. Supernatants were removed and stored. Plate reader assays were performed as described above, with the MMP buffer replaced with neutrophil supernatant. All experiments were carried out in duplicate using three independent donors (one donor per independent repeat). Data were normalised by background subtraction of intrinsic fluorescence.

[4] = supernatant from stimulated (5 μM calcium ionophore A23187) neutrophils; details: human, up to 10 minutes

Row | fragment found [4] | Compound | inhibition of FIB One activation (MMP-2) | FIB One signal in inhibitor-dosed segments [1] | inhibition of FIB One cleavage [2] | inhibition of FIB One activation (MMP-9) | inhibition of FIB One cleavage [3]
1 | – | CNC(=O)[C@@H](NC(=O)[C@H](CC(C)C)[C@H](O)C(=O)NO)C(C)(C)C [marimastat, reference compound] | blocked | did not show an increase in FIB One signal | cleavage inhibition observed | blocked | cleavage inhibition observed
2 | peak at 823 Da, 10 min | FAM-PEG2-Pro-Phe-Gly-Nle-Lys-βAla-Lys(MethylRed)-PEG2-(D)Lys-PEG2-(D)Lys | – | – | – | – | –
